In general, IC50 refers to the midpoint of a concentration-inhibition curve. A higher IC50 goes with weaker potency in that assay. By EC50 is commonly meant the concentration needed to bring the measured effect to its halfway point. Higher therefore signals weaker potency.

The text below walks through data of US8119628B2, “Pyrrolidine fused indolobenzadiazepine HCV NS5B inhibitors” (Bristol-Myers Squibb Company, priority 2008, dated 2012).

For one test, the target named is T1, HCV NS5B (Hepatitis C virus genotype 1b, UniProt Q9WMX2).
T1 construct: The protein was expressed with an 18 amino acid C-terminal truncation to enhance the solubility; made in house; host or cells: E. coli BL21(DE3)
The test is described as follows: Modified HCV NS5B RdRp enzyme assay (preincubation protocol). The class given is biochemical. Conditions: HCV NS5B RdRp genotype 1b. As for the experimental part: HCV NS5B RdRp cloning, expression, and purification. The cDNA encoding the NS5B protein of HCV, genotype 1b, was cloned into the pET21a expression vector. The protein was expressed with an 18 amino acid C-terminal truncation to enhance the solubility. The E. coli competent cell line BL21(DE3) was used for expression of the protein. Cultures were grown at 37° C. for ˜4 hours until the cultures reached an optical density of 2.0 at 600 nm. The cultures were cooled to 20° C. and induced with 1 mM IPTG. Fresh ampicillin was added to a final concentration of 50 μg/ml and the cells were grown overnight at 20° C.
Cell pellets (3 L) were lysed for purification to yield 15-24 […] of purified NS5B. The lysis buffer consisted of 20 mM Tris-HCl, pH 7.4, 500 mM NaCl, 0.5% triton X-100, 1 mM DTT, 1 mM EDTA, 20% glycerol, 0.5 mg/ml lysozyme, 10 mM MgCl2, 15 ug/ml deoxyribonuclease I, and Complete TM protease inhibitor tablets (Roche). After addition of the lysis buffer, frozen cell pellets were resuspended using a tissue homogenizer. To reduce the viscosity of the sample, aliquots of the lysate were sonicated on ice using a microtip attached to a Branson sonicator. The sonicated lysate was centrifuged at 100,000×g for 1 hr at 4° C. and filtered through a 0.2 μm filter unit (Corning).
The protein was purified using three sequential chromatography steps: Heparin sepharose CL-6B, polyU sepharose 4B, and Hitrap SP sepharose (Pharmacia). The chromatography buffers were identical to the lysis buffer but contained no lysozyme, deoxyribonuclease I, MgCl2 or protease inhibitor and the NaCl concentration of the buffer was adjusted according to the requirements for charging the protein onto the column. Each column was eluted with a NaCl gradient which varied in length from 5-50 column volumes depending on the column type. After the final chromatography step, the resulting purity of the enzyme is >90% based on SDS-PAGE analysis. The enzyme was aliquoted and stored at −80° C.
Standard HCV NS5B RdRp enzyme assay. HCV RdRp genotype 1b assays were run in a final volume of 60 μl in 96 well plates (Costar 3912). The assay buffer is composed of 20 mM Hepes, pH 7.5, 2.5 mM KCl, 2.5 mM MgCl2, 1 mM DTT, 1.6 U RNAse inhibitor (Promega N2515), 0.1 mg/ml BSA (Promega R3961), and 2% glycerol. All compounds were serially diluted (3-fold) in DMSO and diluted further in water such that the final concentration of DMSO in the assay was 2%. HCV RdRp genotype 1b enzyme was used at a final concentration of 28 nM. A polyA template was used at 6 nM, and a biotinylated oligo-dT12 primer was used at 180 nM final concentration. Template was obtained commercially (Amersham 27-4110). Biotinylated primer was prepared by Sigma Genosys. 3H-UTP was used at 0.6 μCi (0.29 μM total UTP). Reactions were initiated by the addition of enzyme, incubated at 30° C. for 60 min, and stopped by adding 25 μl of 50 mM EDTA containing SPA beads (4 μg/μl, Amersham RPNQ 0007). Plates were read on a Packard Top Count NXT after >1 hr incubation at room temperature.
Modified HCV NS5B RdRp enzyme assay. A modified enzyme assay was performed essentially as described for the standard enzyme assay except for the following: The biotinylated oligo dTl2 primer was precaptured on streptavidin-coated SPA beads by mixing primer and beads in assay buffer and incubating at room temperature for one hour. Unbound primer was removed after centrifugation. The primer-bound beads were resuspended in 20 mM Hepes buffer, pH 7.5 and used in the assay at final concentrations of 20 nM primer and […] beads. Order of addition in the assay: enzyme (14 nM) was added to diluted compound followed by the addition of a mixture of template (0.2 nM), 3H-UTP (0.6 μCi, 0.29 μM), and primer-bound beads, to initiate the reaction; concentrations given are final. Reactions were allowed to proceed for 4 hours at 30° C.
IC50 values for compounds were determined using seven different. […]

In another test the test system is HCV replicon cells. As to the kind of experiment: HCV FRET assay in HCV replicon cells. The class given is cell-based. As to conditions: Hepatitis C virus. The text has this:
FRET Assay Preparation. To perform the HCV FRET screening assay, 96-well cell culture plates were used. The FRET peptide (Anaspec, Inc.) (Taliani et al., Anal. Biochem. 1996, 240, 60-67) contains a fluorescence donor, EDANS, near one end of the peptide and an acceptor, DABCYL, near the other end. The fluorescence of the peptide is quenched by […] resonance energy transfer (RET) between the donor and the acceptor, but as the NS3 protease cleaves the peptide the products are released from RET quenching and the fluorescence of the donor becomes apparent. The assay reagent was made as follows: 5× cell Luciferase cell culture lysis reagent from Promega (#E153A) diluted to 1× with dH2O, NaCl added to 150 mM final, the FRET peptide diluted to 20 uM final from a 2 mM stock.
To prepare plates, HCV replicon cells, with or without a Renilla luciferase reporter gene, were trypsinized and placed into each well of a 96-well plate with titrated test compounds added in columns 3 through 12; columns 1 and 2 contained a control compound (HCV protease inhibitor), and the bottom row contained cells without compound. The plates were then placed in a CO2 incubator at 37° C.
Assays. Subsequent to addition of the test compounds described above (FRET Assay Preparation), at various times the plate was removed and Alamar blue solution (Trek Diagnostics, #00-100) was added per well as a measure of cellular toxicity. After reading in a Cytoflour 4000 instrument (PE Biosystems), plates were rinsed with PBS and then used for FRET assay by the addition of 30 ul of the FRET peptide assay reagent described above (FRET Assay Preparation) per well. The plate was then placed into the Cytoflour 4000 instrument which had been set to 340 excite/490 emission, automatic mode for 20 cycles and the plate read in a kinetic mode. Typically, the signal to noise using an endpoint analysis after the reads was at least three-fold. Alternatively, after Alamar blue reading, plates were rinsed with PBS, 50 ul of DMEM (high glucose) without phenol red was added and plates were then used for luciferase assay using the Promega Dual-Glo Luciferase Assay System.
Compound analysis was determined by quantification of the relative HCV replicon inhibition and the relative cytotoxicity values. To calculate cytoxicity values, the average Alamar Blue fluorescence signals from the control wells were set as 100% non-toxic. The individual signals in each of the compound test wells were then divided by the average control signal and multiplied by 100% to determine […]. To calculate the HCV replicon inhibition values, an average background value was obtained from the two wells containing the highest amount of HCV protease inhibitor at the end of the assay period. These numbers were similar to those obtained from naïve Huh-7 cells.
The background numbers were then subtracted from the average signal obtained from the control wells and this number was used as 100% activity. The individual signals in each of the compound test wells were then divided by the averaged control values after background subtraction and multiplied by 100% to determine percent activity. EC50 values for a protease inhibitor titration were calculated as the concentration which caused a 50% reduction in FRET or luciferase activity. The two numbers generated for the compound plate, percent cytoxicity and percent activity were used to determine compounds of interest for further analysis.
For orientation: Replicon systems follow genome replication, usually without infectious particles.

T1 sequence (Q9WMX2 2420-2992): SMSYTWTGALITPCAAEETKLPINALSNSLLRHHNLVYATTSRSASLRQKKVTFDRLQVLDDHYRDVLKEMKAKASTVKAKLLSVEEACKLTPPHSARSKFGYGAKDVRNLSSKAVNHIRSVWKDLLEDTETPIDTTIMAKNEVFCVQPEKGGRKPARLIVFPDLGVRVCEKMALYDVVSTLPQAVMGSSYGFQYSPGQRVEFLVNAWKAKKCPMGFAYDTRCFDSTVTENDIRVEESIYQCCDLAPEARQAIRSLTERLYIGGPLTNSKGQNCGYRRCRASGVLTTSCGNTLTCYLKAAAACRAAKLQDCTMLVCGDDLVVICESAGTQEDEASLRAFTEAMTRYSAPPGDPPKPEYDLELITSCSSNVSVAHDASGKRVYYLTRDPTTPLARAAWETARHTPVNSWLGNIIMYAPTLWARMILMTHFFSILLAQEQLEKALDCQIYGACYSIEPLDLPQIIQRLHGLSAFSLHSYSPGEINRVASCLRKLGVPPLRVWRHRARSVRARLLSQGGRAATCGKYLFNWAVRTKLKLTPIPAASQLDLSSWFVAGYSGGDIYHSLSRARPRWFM

`COc1ccc2c(c1)C1CN(Cc3ccccc3)CC1(C(=O)N1C[C@@H](C)O[C@@H](C)C1)Cn1c-2c(C2CCCCC2)c2ccc(C(=O)NS(=O)(=O)N(C)C)cc21` (mixture of isomers) [Example 1, rac-(3aR,14bR)-2-benzyl-10-cyclohexyl-3a-(((2S,6R)-2,6-dimethyl-4-morpholinyl)carbonyl)-N-(dimethylsulfamoyl)-13-methoxy-1,2,3,3a,4,14b-hexahydroindolo[2,1-a]pyrrolo[3,4-d][2]benzazepine-7-carboxamide] displayed an IC50 on HCV NS5B of 430 nM. Also, the midpoint of the response in the test on HCV replicon cells, the EC50, lay at 210 nM.
With `COc1ccc2c(c1)C1CN(C(C)=O)CC1(C(=O)N1C[C@@H](C)O[C@@H](C)C1)Cn1c-2c(C2CCCCC2)c2ccc(C(=O)NS(=O)(=O)N(C)C)cc21` (mixture of isomers) [Example 4, rac-(3aR,14bR)-2-Acetyl-10-cyclohexyl-3a-(((2S,6R)-2,6-dimethyl-4-morpholinyl)carbonyl)-N-(dimethylsulfamoyl)-13-methoxy-1,2,3,3a,4,14b-hexahydroindolo[2,1-a]pyrrolo[3,4-d][2]benzazepine-7-carboxamide], the IC50 on HCV NS5B (reported as class) is 20 to 500 nM. Besides, the EC50 with HCV replicon cells (reported as class) fell in the range of 20 to 500 nM.
On to `COc1ccc2c(c1)C1CN(C(=O)CN(C)C)CC1(C(=O)N1C[C@@H](C)O[C@@H](C)C1)Cn1c-2c(C2CCCCC2)c2ccc(C(=O)NS(=O)(=O)N(C)C)cc21` (mixture of isomers) [Example 13, rac-(3aR,14bR)-10-Cyclohexyl-2-(N,N-dimethylglycyl)-3a-(((2S,6R)-2,6-dimethyl-4-morpholinyl)carbonyl)-N-(dimethylsulfamoyl)-13-methoxy-1,2,3,3a,4,14b-hexahydroindolo[2,1-a]pyrrolo[3,4-d][2]benzazepine-7-carboxamide], for which, on HCV NS5B (reported as class), the IC50 lay in the range of 20 to 500 nM. In the test with HCV replicon cells (reported as class), this molecule returned a 50% effective concentration (EC50) of 20 to 500 nM.
For `COc1ccc2c(c1)C1CN(C(C)CN(C)C)CC1(C(=O)N1C[C@@H](C)O[C@@H](C)C1)Cn1c-2c(C2CCCCC2)c2ccc(C(=O)NS(=O)(=O)N(C)C)cc21` (mixture of isomers) [Example 12, rac-(3aR,14bR)-10-cyclohexyl-2-(2-(dimethylamino)-1-methylethyl)-3a-(((2S,6R)-2,6-dimethyl-4-morpholinyl)carbonyl)-N-(dimethylsulfamoyl)-13-methoxy-1,2,3,3a,4,14b-hexahydroindolo[2,1-a]pyrrolo[3,4-d][2]benzazepine-7-carboxamide], on HCV NS5B (reported as class), the IC50 was 20 to 500 nM. In addition, the EC50 in the test on HCV replicon cells (reported as class) lay in the range of 20 to 500 nM.
Consider `COc1ccc2c(c1)C1CN(Cc3cncn3C)CC1(C(=O)N(C)C)Cn1c-2c(C2CCCCC2)c2ccc(C(=O)NS(=O)(=O)N(C)C)cc21` (racemic) [Example 18, rac-(3aR,14bR)-10-Cyclohexyl-N^7-(dimethylsulfamoyl)-13-methoxy-N^3a,N^3a-dimethyl-2-((1-methyl-1H-imidazol-5-yl)methyl)-1,2,3,14b-tetrahydroindolo[2,1-a]pyrrolo[3,4-d][2]benzazepine-3a,7(4H)-dicarboxamide], for which the IC50 against HCV NS5B (reported as class) fell in the range of 20 to 500 nM. The EC50 with HCV replicon cells (reported as class) is 20 to 500 nM.
At HCV NS5B (reported as class), `COc1ccc2c(c1)C1CN(C(=O)c3nccn3C)CC1(C(=O)N(C)C)Cn1c-2c(C2CCCCC2)c2ccc(C(=O)NS(=O)(=O)N(C)C)cc21` (racemic) [Example 16, rac-(3aR,14bR)-10-Cyclohexyl-N^7-(dimethylsulfamoyl)-13-methoxy-N^3a,N^3a-dimethyl-2-((1-methyl-1H-imidazol-2-yl)carbonyl)-1,2,3,14b-tetrahydroindolo[2,1-a]pyrrolo[3,4-d][2]benzazepine-3a,7(4H)-dicarboxamide] yielded an IC50 of 20 to 500 nM. Further, the EC50 in the test with HCV replicon cells (reported as class) was in the range of 20 to 500 nM.
On HCV NS5B, `COc1ccc2c(c1)C1CN(C(C)C)CC1(C(=O)N1C[C@@H](C)O[C@@H](C)C1)Cn1c-2c(C2CCCCC2)c2ccc(C(=O)NS(=O)(=O)N(C)C)cc21` (mixture of isomers) [Example 5, rac-(3aR,14bR)-10-Cyclohexyl-3a-(((2S,6R)-2,6-dimethyl-4-morpholinyl)carbonyl)-N-(dimethylsulfamoyl)-2-isopropyl-13-methoxy-1,2,3,3a,4,14b-hexahydroindolo[2,1-a]pyrrolo[3,4-d][2]benzazepine-7-carboxamide] had an IC50 of 200 nM. For the same molecule, in the test with HCV replicon cells, the EC50 turned out to be 120 nM.
